Source: BindingDB's records for doi:10.1074/jbc.M114.571216 (Dalhousie University, 2014)

What was measured:
[1] = target: T1, Oxysterol-binding protein 2 (Homo sapiens, UniProt Q969R2); experiment: Sterol-Binding Assay; conditions: pH 7.4; 20 °C
T1 sequence (Q969R2 whole entry): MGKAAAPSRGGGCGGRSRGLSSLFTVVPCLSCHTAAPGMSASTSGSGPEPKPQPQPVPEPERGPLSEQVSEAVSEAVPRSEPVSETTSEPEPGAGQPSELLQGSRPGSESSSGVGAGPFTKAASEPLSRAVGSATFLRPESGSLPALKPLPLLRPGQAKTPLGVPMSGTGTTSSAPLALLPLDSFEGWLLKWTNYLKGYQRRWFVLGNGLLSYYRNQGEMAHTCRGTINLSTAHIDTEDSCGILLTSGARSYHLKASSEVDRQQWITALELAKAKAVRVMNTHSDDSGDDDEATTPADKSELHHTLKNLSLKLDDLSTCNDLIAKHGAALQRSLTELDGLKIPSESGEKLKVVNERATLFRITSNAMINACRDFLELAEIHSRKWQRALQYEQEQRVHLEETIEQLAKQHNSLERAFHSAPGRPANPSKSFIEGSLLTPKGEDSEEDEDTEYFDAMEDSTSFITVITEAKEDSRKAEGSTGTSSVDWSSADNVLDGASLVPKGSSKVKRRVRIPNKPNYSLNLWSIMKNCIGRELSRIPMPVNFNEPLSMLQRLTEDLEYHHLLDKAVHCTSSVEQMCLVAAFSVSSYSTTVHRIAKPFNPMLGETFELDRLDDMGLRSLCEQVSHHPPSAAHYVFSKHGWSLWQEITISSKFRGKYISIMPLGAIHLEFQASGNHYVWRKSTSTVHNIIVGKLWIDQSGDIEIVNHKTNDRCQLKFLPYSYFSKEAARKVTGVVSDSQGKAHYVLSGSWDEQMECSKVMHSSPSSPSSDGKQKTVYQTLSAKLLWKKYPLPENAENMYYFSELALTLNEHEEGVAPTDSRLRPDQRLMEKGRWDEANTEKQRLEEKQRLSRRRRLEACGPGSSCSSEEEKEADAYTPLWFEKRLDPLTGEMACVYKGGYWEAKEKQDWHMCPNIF
Experimental: (§1) Recombinant OSBP, ORP4L, or ORP4S (8 pmol) was incubated in 75 μl of binding buffer (10 mM HEPES (pH 7.4), 150 mM KCl, 2% (w/v) polyvinyl alcohol) containing radioactive sterols (with or without a 40-fold excess of unlabeled sterol). After 2 h at 20 °C, a 25-μl slurry of Talon resin (1:1, v/v) was added and mixed for 10 min. Talon resin and bound protein were washed three times with 300 μl of 10 mM HEPES (pH 7.4) and 150 mM KCl and sedimented by brief centrifugation. Bound proteins were eluted from the resin with 150 mM imidazole (pH 7.4), the resin was sedimented by centrifugation, and radioactivity bound to protein in the supernatant was measured by liquid scintillation counting.

[2] = target: T2, Oxysterol-binding protein 2 [1-181,275-916] (Homo sapiens, UniProt Q969R2); experiment: Sterol-Binding Assay; conditions: pH 7.4; 20 °C
T2 construct: 1-181,275-916
T2 sequence (Q969R2 whole entry): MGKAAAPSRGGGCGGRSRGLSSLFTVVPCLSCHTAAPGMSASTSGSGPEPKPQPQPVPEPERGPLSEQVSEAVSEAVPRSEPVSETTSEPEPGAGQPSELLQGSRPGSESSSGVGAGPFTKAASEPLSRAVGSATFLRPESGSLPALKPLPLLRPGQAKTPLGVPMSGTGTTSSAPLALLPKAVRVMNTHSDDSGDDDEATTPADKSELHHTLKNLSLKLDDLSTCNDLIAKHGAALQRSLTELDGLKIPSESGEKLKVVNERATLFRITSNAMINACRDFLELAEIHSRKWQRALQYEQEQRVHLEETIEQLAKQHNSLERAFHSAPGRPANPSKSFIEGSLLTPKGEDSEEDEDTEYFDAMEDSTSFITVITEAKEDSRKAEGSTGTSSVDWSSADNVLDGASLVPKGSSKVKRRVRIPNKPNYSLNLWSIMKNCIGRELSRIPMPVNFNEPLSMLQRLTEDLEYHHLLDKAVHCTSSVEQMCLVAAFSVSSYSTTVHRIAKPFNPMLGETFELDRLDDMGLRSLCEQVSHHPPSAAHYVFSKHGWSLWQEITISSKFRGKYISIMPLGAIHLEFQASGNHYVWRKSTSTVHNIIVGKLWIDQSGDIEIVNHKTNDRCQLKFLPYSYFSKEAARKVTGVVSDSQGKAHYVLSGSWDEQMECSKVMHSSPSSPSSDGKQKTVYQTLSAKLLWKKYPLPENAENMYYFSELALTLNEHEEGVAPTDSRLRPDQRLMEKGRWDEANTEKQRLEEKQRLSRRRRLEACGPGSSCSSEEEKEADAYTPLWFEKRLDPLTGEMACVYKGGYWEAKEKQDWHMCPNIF
Experimental: as §1

In the case of `CC(C)CCC[C@@H](C)[C@H]1CC[C@H]2[C@@H]3CC=C4C[C@@H](O)CC[C@]4(C)[C@H]3CC[C@]12C` [(1S,2R,5S,10S,11S,14R,15R)-2,15-dimethyl-14-[(2R)-6-methylheptan-2-yl]tetracyclo[8.7.0.0^{2,7}.0^{11,15}]heptadec-7-en-5-ol], the Kd [1] is reported as 68 nM and the Kd [2] is reported as 60 nM.
With `C[C@H](CCCC(C)(C)O)[C@H]1CC[C@H]2[C@@H]3CC=C4C[C@@H](O)CC[C@]4(C)[C@H]3CC[C@]12C` [(1S,2R,5S,10S,11S,14R,15R)-14-[(2R)-6-hydroxy-6-methylheptan-2-yl]-2,15-dimethyltetracyclo[8.7.0.0^{2,7}.0^{11,15}]heptadec-7-en-5-ol] the Kd [1] was 17 nM and the Kd [2] was 23 nM.
